Experimental findings from ChEMBL document CHEMBL1201862, “PubChem BioAssay data set” (2004) are described below.

Calls of active or inactive are those of the source. Where only a bound is given, the exact number is not on record here.

Test [1] concerns the target T1, Rac GTPase-activating protein 1 (Homo sapiens, UniProt Q9H0H5).
T1 sequence (Q9H0H5 whole entry): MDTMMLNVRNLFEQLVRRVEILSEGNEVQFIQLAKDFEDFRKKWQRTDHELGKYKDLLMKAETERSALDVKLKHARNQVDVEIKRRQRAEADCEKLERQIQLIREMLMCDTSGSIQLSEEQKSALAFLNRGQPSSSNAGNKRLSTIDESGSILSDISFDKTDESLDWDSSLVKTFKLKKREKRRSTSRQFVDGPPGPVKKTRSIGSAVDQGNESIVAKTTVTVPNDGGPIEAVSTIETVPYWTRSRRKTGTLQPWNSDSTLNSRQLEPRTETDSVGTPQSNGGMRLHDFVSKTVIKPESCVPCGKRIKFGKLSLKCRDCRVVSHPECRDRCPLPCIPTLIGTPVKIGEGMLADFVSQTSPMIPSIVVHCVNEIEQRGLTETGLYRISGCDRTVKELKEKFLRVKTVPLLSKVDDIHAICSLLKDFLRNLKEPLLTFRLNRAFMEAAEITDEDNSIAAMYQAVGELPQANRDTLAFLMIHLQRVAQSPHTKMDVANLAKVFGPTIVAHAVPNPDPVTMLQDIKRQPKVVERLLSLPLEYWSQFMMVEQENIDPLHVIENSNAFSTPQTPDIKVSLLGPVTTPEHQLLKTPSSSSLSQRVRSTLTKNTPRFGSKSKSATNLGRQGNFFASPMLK
Description: blockers of MgcRacGAP-driven Rac1 GTP hydrolysis – biochemical, ADP Hunter fluorescence, primary and confirmatory, confirmation (AID 624330). It counts as functional.

A short description of test [2]: Luminescence Cell-Based Dose Retest to Confirm Inhibitors of Cancer Stem Cells. [Related pubchem assays (depositor defined):AID2717, AID2721]. The format is functional. The note with it: Homo sapiens.
Test [3] deals with Luciferin 4-monooxygenase (Photinus pyralis, UniProt P08659). Description: inhibition of purified Photinus pyralis luciferase – biochemical, luminescence, dose response (AID 1891).
Test [4] can be described thus: Luminescence Cell-Based Dose Confirmation HTS to Identify Inhibitors of Platelet Dense Granule Release. [Related pubchem assays: 1663 (Primary HTS), 1678 (Summary of Project)]. The format is functional.
The next test has as its target Cytochrome P450 2C19 (Homo sapiens, UniProt P33261). Description: Cytochrome panel assay with activity outcomes. Panel member name: p450-cyp2c19 Compounds with AC50 equal or less than 10 uM are considered active. The format is functional. To be noted: read-out: AC50.
The target in a further test is Cytochrome P450 2C9 (Homo sapiens, UniProt P11712).
A further test relates to INS1. Briefly: INS-1E survival protection against cytokine death – cell-based, luminescence, retest, dose response (AID 449756).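 Further: cell death triggered by IL-1 beta plus TNF-alpha plus IFN-gamma mixture; protective hits raise ATP signal compared with cytokine alone wells.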 The format is functional. The note with it: Rattus norvegicus.
For a further test, the target named is Cytochrome P450 3A4 (Homo sapiens, UniProt P08684).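 Further: CYP3A4 tested as one member of a cytochrome P450 panel screen.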
Test [5] in a line: Trypanosoma cruzi growth suppression in host cells – NIH3T3 host cells, beta-gal luminescence, confirmation (AID 2044).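 Further: intracellular parasites grown in NIH/3T3 mouse fibroblasts as host cells; luminescent beta-galactosidase reporter signal from transgenic T. cruzi replicating inside host cells; inhibitors lower the luminescence signal.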 It counts as functional, cell-based.
Test [6] is described as follows: NIH3T3 cell viability loss – ATP luminescence, mouse fibroblasts, counter-screen, dose response (AID 2010).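 Further: cells exposed to compound for about 90 hours before reading.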 The format is functional, cell-based. On the technique in general: A counterscreen serves to expose hits that act by an unwanted route or on another target.
The target of test [7] is T2, Heat shock factor protein 1 (Mus musculus, UniProt P38532).
T2 sequence (P38532 whole entry): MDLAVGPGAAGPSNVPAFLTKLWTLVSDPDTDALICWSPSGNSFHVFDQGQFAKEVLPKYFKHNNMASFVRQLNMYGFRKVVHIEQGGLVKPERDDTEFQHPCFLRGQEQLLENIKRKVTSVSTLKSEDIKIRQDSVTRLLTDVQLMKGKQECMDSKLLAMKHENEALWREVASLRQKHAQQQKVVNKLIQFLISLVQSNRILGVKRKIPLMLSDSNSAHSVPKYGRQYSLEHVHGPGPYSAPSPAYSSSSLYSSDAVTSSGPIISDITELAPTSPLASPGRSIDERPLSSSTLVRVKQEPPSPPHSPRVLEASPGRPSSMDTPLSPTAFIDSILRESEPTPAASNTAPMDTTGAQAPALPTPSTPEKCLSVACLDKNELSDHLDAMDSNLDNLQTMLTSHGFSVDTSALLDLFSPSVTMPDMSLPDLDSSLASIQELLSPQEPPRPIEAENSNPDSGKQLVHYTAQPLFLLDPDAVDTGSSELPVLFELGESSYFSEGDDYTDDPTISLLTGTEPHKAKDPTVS
Description: decrease of HSF1-responsive luciferase luminescence – cell-based, NIH3T3, dose retest, confirmation (AID 2382).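 Further: NIH3T3 fibroblasts with HSF1-driven luciferase reporter stressed by proteasome inhibitor MG132; luminescence from HSF1-driven luciferase expression after 8 hours of MG132 stress.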 It counts as functional.

Test [8] concerns Streptococcus sp. 'group A'. Briefly: Streptococcus pyogenes SK(-)GAS viability under kanamycin – luminescence, BacTiterGlo, confirmation, counter-screen for streptokinase expression inhibitor project, dose response (AID 1900). It counts as functional, organism-based.
Another test has as its target T3, Streptokinase A (Streptococcus pyogenes serotype M1, UniProt P10520).
T3 sequence (P10520 whole entry): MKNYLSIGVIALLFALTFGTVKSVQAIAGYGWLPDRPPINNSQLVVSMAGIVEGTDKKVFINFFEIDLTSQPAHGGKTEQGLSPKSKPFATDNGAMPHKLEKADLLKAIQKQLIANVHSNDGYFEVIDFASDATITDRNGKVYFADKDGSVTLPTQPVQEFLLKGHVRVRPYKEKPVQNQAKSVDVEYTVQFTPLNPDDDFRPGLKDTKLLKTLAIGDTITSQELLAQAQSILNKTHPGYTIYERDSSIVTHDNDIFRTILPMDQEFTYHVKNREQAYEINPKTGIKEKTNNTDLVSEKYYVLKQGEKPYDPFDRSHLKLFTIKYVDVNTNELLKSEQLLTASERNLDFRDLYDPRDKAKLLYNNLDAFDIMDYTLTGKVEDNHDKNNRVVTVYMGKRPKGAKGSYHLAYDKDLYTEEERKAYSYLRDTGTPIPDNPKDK
Description: viability-normalized secreted streptokinase activity reduction – plasminogen activation absorbance, OD405, dose response (AID 1914).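 Further: secreted streptokinase activity via plasminogen activation per viability signal from cell pellet.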 The format is functional, Streptococcus pyogenes M1 GAS.

In another test the test system is Streptococcus. Description: GAS UMAA2166 growth inhibition – luminescence, BacTiterGlo, counter-screen for streptokinase expression inhibitor project, dose response (AID 1915).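 Further: potency for reduction of bacterial viability or growth.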 It counts as functional, organism-based.

Cytochrome P450 3A4, sequence (P08684 whole entry): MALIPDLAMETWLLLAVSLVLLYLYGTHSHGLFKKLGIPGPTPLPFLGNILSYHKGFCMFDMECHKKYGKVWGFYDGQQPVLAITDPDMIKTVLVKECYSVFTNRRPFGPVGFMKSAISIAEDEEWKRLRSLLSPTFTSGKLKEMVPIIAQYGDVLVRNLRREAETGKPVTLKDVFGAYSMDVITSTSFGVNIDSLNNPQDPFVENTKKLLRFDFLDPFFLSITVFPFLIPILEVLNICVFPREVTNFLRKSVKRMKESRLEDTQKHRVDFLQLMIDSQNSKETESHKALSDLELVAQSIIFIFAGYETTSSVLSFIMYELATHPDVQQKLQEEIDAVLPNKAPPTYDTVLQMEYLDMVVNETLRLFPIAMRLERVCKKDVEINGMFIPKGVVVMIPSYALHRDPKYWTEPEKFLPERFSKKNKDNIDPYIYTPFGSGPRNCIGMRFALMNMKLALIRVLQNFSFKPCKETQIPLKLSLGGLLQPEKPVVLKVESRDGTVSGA
Cytochrome P450 2C9, sequence (P11712 whole entry): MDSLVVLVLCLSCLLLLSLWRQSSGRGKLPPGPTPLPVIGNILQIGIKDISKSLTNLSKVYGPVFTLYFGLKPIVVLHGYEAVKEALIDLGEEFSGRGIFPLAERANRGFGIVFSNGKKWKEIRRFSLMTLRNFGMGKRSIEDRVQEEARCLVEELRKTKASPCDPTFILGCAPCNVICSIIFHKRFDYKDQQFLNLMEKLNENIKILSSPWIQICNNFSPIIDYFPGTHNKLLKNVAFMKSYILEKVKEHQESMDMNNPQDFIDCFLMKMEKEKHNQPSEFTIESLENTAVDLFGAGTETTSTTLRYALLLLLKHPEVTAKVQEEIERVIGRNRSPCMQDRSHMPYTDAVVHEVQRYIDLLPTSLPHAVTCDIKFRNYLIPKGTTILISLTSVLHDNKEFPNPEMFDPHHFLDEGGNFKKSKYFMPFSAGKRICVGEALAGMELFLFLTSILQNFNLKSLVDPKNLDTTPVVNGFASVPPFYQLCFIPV
Cytochrome P450 2C19, sequence (P33261 whole entry): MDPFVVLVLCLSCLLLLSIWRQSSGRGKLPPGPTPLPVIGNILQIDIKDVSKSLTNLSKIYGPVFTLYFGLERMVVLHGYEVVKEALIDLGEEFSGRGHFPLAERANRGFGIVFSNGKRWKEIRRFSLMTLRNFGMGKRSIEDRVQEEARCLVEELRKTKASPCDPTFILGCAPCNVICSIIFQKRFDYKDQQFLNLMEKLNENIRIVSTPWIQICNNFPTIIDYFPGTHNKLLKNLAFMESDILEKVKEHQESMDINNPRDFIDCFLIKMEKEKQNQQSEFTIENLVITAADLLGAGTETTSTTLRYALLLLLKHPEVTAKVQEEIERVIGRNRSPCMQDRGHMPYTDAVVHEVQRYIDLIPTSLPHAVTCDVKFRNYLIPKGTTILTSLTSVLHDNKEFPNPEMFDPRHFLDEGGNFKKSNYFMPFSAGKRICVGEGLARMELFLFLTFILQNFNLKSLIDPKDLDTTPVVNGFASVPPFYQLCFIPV
Luciferin 4-monooxygenase, sequence (P08659 whole entry): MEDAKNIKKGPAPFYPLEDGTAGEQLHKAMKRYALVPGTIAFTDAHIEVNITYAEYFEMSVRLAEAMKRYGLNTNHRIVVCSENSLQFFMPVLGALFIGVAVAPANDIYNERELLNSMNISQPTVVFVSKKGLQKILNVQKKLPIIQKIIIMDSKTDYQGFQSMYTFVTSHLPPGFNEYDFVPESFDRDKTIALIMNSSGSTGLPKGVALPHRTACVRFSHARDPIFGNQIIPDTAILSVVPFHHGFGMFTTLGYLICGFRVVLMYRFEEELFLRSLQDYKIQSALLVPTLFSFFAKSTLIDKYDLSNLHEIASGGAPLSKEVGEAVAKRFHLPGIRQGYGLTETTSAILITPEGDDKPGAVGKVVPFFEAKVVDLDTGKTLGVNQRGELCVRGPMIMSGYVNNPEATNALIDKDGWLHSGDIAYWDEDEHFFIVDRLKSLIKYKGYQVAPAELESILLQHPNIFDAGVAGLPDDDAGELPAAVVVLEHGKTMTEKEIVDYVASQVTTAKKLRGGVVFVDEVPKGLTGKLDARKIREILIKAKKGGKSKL

What is called IC50 is the midpoint of a concentration-inhibition curve. Take `CC(OC(=O)CCNC1=NS(=O)(=O)c2ccccc21)C(=O)Nc1ccc(N(C)C)cc1` (stereo not given): the half-maximal inhibitory concentration (IC50) in [1] is 54.7 µM (active).

A word on the AC50: it is the concentration at which the activity in the assay is half-maximal. Regarding `CCOC(=O)Nc1ccc2nc(Sc3ccc(Cl)cc3)sc2c1`, the AC50 in test [2] was 1.53 µM (active).

As usually defined, the EC50 is the concentration at which the effect is half-maximal. As to `CCCCC[C@H](O)/C=C/[C@H]1[C@H](O)CC(=O)[C@@H]1CCCCCCC(=O)O` [ALPROSTADIL], the results for the EC50 in test [3] and in test [4] were > 112 µM (not active) and < 0.088 µM (active), respectively.

`CCO/C(O)=C1/C(C)=Nc2ncnn2C1c1cccnc1` (stereo not given): the concentration at half-maximal activity (AC50) is 22.4 µM (inconclusive) on Cytochrome P450 2C19 and 25.1 µM (inconclusive) on Cytochrome P450 2C9.

For the compound `C/C(=N\Nc1nc(C)cc(-c2ccccc2)n1)c1cccc(N)c1`, the AC50 in the test on INS1 was 2.76 µM (active).

As for `N#Cc1ccc(CN2CCC3(CC2)CCN(C(=O)c2cnccn2)CC3)cc1`, the AC50 at Cytochrome P450 2C9 is 39.8 µM (inconclusive).

For `Cc1cc(NC(=S)NC(=O)CC(C)C)ccc1Br`, the AC50 at Cytochrome P450 3A4 was 20 µM (inconclusive); on Cytochrome P450 2C9, 0.0447 µM (inconclusive).

With `Cc1ccccc1-c1ccc(CN2CCN(C)C(CCO)C2)cc1` (stereo not given), the results for the EC50 in [5] and in test [6] were 0.828 µM (active) and 4.69 µM (active), respectively. The AC50 in test [2] was 2.9 µM (active).

On to `C=C(Br)Cn1c(CCCC)nc2ccccc21`, for which the AC50 in test [2] is 0.514 µM (active).

Regarding `CC1CCN(CC(=O)Nc2ccc(S(=O)(=O)NC3CC3)cc2)CC1`, in test [7], the EC50 is > 195 µM (not active). In addition, in [1], the IC50 was 179 µM (active).

With `Cc1ccsc1/C=N/Nc1nc2ccccc2[nH]1`, the IC50 in test [1] was 71.6 µM (active).

With `O=C(CC1(O)C(=O)N(Cc2ccccc2)c2ccccc21)c1ccncc1` (stereo not given), the EC50 in [3] and in [4] was > 112 µM (not active) throughout.

Turning to `CC1(C)CC(=O)C(C(C#Cc2ccccc2)C2=C(O)CC(C)(C)CC2=O)=C(O)C1`, the AC50 at Cytochrome P450 3A4 is 31.6 µM (inconclusive).

Turning to `O=C(O)/C=C/c1cccc(NC(=O)c2ccccc2)c1`, the values for the EC50 in [3] and in [4] were 4.49 µM (active) and 17.4 µM (active), respectively.

As to `N=C(NOC(=O)c1ccc(Cl)cc1)c1[nH]ncc1Br`, the values for the EC50 in [3] and in test [4] were 0.882 µM (active) and 4.36 µM (active), respectively.

Consider `CC(C)C(C(=O)NCC1CCCO1)N(Cc1ccco1)C(=O)CNS(=O)(=O)c1ccc(F)cc1` (stereo not given), for which the AC50 on Cytochrome P450 2C19 was 11.2 µM (inconclusive); at Cytochrome P450 2C9, 39.8 µM (inconclusive).

For the compound `CC(=O)Nc1ccc(Nc2ccccc2)cc1`, the IC50 in [1] was 75.6 µM (active).

Turning to `CCCCn1c(N)c(N(Cc2ccccc2OC)C(=O)C(C)Oc2ccc(Cl)cc2)c(=O)[nH]c1=O` (stereo not given), the EC50 in [3] and in test [4] was > 112 µM (not active) each time.

On to `COCCn1c(=O)c(-c2cn(C)c3ccccc23)nc2cnc(OCc3ccccc3)nc21`, for which the AC50 at Cytochrome P450 3A4 is 7.94 µM (inconclusive).

Consider `COc1ccc(CN2CCCC(C(=O)c3cccc(OC(C)C)c3)C2)cc1Cn1cccn1` (stereo not given), for which the EC50 in test [3] and in test [4] was > 112 µM (not active) throughout.

Consider `O=C(Cc1ccc(Cl)c(Cl)c1)Nc1ccc(SC(F)F)cc1`, for which the AC50 in [2] is 4.04 µM (active).

As for `Cc1ccccc1CNc1ccc(C(CC(N)=O)NC(=O)c2ccccc2)cc1[N+](=O)[O-]` (stereo not given), in test [2], the AC50 is 3.49 µM (active).

For the compound `Cc1cc(C(F)(F)F)nn1CC(=O)Nc1cccnc1`, the AC50 was 22.4 µM (inconclusive) at Cytochrome P450 2C19, 25.1 µM (inconclusive) on Cytochrome P450 3A4 and 39.8 µM (inconclusive) on Cytochrome P450 2C9.

Consider `O=C(Cc1ccccc1)NC(=S)Nc1cc(C(F)(F)F)ccc1Cl`, for which the AC50 at Cytochrome P450 2C9 is 3.55 µM (inconclusive).

Regarding `Cc1cccc(N2C(S)=C(C#N)C(=O)NC2c2cccs2)c1` (stereo not given), in test [1], the IC50 is 110 µM (active).

As for `Cc1nn(CC(=O)Nc2cccnc2)c(C)c1[N+](=O)[O-]`, the EC50 in test [3] is > 112 µM (not active); in [4] it was 7.26 µM (active).

Regarding `O=S1(=O)C=C(N2CCOCC2)c2ccccc21`, at Cytochrome P450 2C9, the AC50 was 39.8 µM (inconclusive).

Consider `CN(C)CCOC(=O)CCc1ccccc1`, for which the EC50 in test [3] and in test [4] was > 112 µM (not active) throughout.

As for `Cc1cc(C)c(-c2noc(C(=O)OC(C)(C)C)c2C(=O)OC(C)(C)C)c(C)c1`, the figures for the EC50 (in [8]; at Streptokinase A; in the test with Streptococcus) were 10.4 µM (active), 11.5 µM (active) and > 150 µM (not active), respectively. For the same compound, the AC50 is 11.2 µM (inconclusive) on Cytochrome P450 2C19 and 12.6 µM (inconclusive) at Cytochrome P450 2C9.

For the compound `Cc1ccc(-c2nn(-c3ccccc3)cc2/C=C/C(=O)Nc2cccc(S(N)(=O)=O)c2)cc1`, in the test with INS1, the AC50 is 3.29 µM (active).

In the case of `COCCNC(=O)COc1ccc(Nc2ccccc2)cc1`, the IC50 in test [1] was 47.6 µM (active).

Take `O=C(COc1ccc2ccccc2c1)NNC(=O)Cc1cccc2ccccc12`: the AC50 at Cytochrome P450 2C19 is 0.398 µM (inconclusive); at Cytochrome P450 3A4, 14.1 µM (inconclusive).

As for `Clc1ccccc1-c1cncnc1NCc1cccs1`, on Cytochrome P450 2C9, the AC50 is 0.794 µM (inconclusive).

In the case of `CS(=O)(=O)N1CCC2(CCCN(C(=O)Nc3cccc(F)c3)C2)CC1`, the AC50 on Cytochrome P450 3A4 was 20 µM (inconclusive).

As for `OC(CNCC1COc2ccccc2O1)COCc1cccs1` (stereo not given), the IC50 in test [1] is 76.9 µM (active).

`CC1(C)C(=O)N=C2C1=C(O)C(=O)c1ccccc12`: the AC50 on Cytochrome P450 2C19 is 31.6 µM (inconclusive); on Cytochrome P450 3A4, 31.6 µM (inconclusive); at Cytochrome P450 2C9, 25.1 µM (inconclusive).

With `O=[N+]([O-])C(=C\Nc1ccccc1O)/C=N/c1ccccc1O`, in test [1], the IC50 is 58.9 µM (active).

Turning to `O=[N+]([O-])c1ccc(N2CCC(=NOCc3ccc(Cl)cc3)CC2)cc1`, the figures for the AC50 on Cytochrome P450 2C19, on Cytochrome P450 3A4 and on Cytochrome P450 2C9 were 4.47 µM (inconclusive), 35.5 µM (inconclusive) and 14.1 µM (inconclusive), respectively.

Regarding `CN(C(S)=Nc1ccc(SC(F)F)cc1)C(c1ccccc1)c1ccccc1`, the AC50 in test [2] is 4.57 µM (active).

Regarding `O=C(N/N=C/c1ccc(OC2CSC2)cc1)c1ccccc1`, the AC50 in test [2] was 2.49 µM (active).
